# Patent US20100267561A1, “HERBICIDAL PYRIDAZINONE DERIVATIVES” (priority 2007, published 2010)
# Assays:
# Type in all cases: in vivo
# wild oat (Avena fatua) = assay: Test C pre-/postemergence plant response
# In short: (§1)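 Pre- and postemergence treatment, visual 0–100 rating vs controls at 15–25 days.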
# [1] = system: downy bromegrass (Bromus tectorum); assay: Test C pre-/postemergence plant response
# In short: as §1
# [2] = system: pigweed (Amaranthus retroflexus); assay: Test C pre-/postemergence plant response
# In short: as §1
# [3] = system: green foxtail (Setaria viridis); assay: Test C pre-/postemergence plant response
# In short: as §1
# [4] = system: winter wheat (Triticum aestivum); assay: Test C pre-/postemergence plant response
# In short: as §1
# [5] = system: blackgrass (Alopecurus myosuroides); assay: Test C pre-/postemergence plant response
# In short: as §1
# [6] = system: Italian ryegrass (Lolium multiflorum); assay: Test C pre-/postemergence plant response
# In short: as §1
# [7] = system: spring wheat (Triticum aestivum); assay: Test C pre-/postemergence plant response
# In short: as §1
# [8] = system: wild mustard (Sinapis arvensis); assay: Test C pre-/postemergence plant response
# In short: as §1
# [9] = system: canarygrass (Phalaris minor); assay: Test C pre-/postemergence plant response
# In short: as §1
# [10] = system: winter barley (Hordeum vulgare); assay: Test C pre-/postemergence plant response
# In short: as §1
# [11] = system: annual bluegrass (Poa annua); assay: Test C pre-/postemergence plant response
# In short: as §1
# [12] = system: windgrass (Apera spica-venti); assay: Test C pre-/postemergence plant response
# In short: as §1
# [13] = system: canarygrass (Phalaris minor); assay: Test B postemergence plant response; details: for Plant response rating, Canarygrass: Postemergence
# In short: (§2)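 Visual injury ratings on a 0–100 scale, where 100 means complete control, were made 13 to 15 days after postemergence treatment of greenhouse-grown plants at the 1- to 4-leaf stage.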
# [14] = system: winter barley (Hordeum vulgare); assay: Test B postemergence plant response; details: for Plant response rating, Barley: Postemergence
# In short: as §2
# [15] = system: windgrass (Apera spica-venti); assay: Test B postemergence plant response; details: for Plant response rating, Windgrass: Postemergence
# In short: as §2
# [16] = system: chickweed (Stellaria media); assay: Test B postemergence plant response; details: for Plant response rating, Chickweed: Postemergence
# In short: as §2
# [17] = Postemergence, 8 g ai/ha, scale 0 to 100, 0 no effect, 100 complete control
# [18] = Postemergence, 16 g ai/ha, scale 0 to 100, 0 no effect, 100 complete control
# [19] = Postemergence, 31 g ai/ha, scale 0 to 100, 0 no effect, 100 complete control
# [20] = Postemergence, 62 g ai/ha, scale 0 to 100, 0 no effect, 100 complete control
# [21] = Preemergence, 8 g ai/ha, scale 0 to 100 (0 no effect, 100 complete control)
# [22] = Preemergence, 16 g ai/ha, scale 0 to 100 (0 no effect, 100 complete control)
# [23] = Preemergence, 31 g ai/ha, scale 0 to 100 (0 no effect, 100 complete control)
# [24] = Preemergence, 62 g ai/ha, scale 0 to 100, 0 no effect, 100 complete control
# [25] = 8 g ai/ha, postemergence, 0-100 scale
# [26] = 31 g ai/ha, scale 0 to 100, 0 no effect, 100 complete control
structure (smiles),measurement,setting,value
CCc1cc(-c2ccc(F)cc2)nn1-c1c(O)cnn(C)c1=O [Compound 25],"Plant response rating, Oat, Wild",wild oat (Avena fatua); [17],0
same,"Plant response rating, Oat, Wild",wild oat (Avena fatua); [18],15
same,"Plant response rating, Oat, Wild",wild oat (Avena fatua); [19],90
same,"Plant response rating, Oat, Wild",wild oat (Avena fatua); [20],95
same,"Plant response rating, Oat, Wild",wild oat (Avena fatua); [21],15
same,"Plant response rating, Oat, Wild",wild oat (Avena fatua); [22],15
same,"Plant response rating, Oat, Wild",wild oat (Avena fatua); [23],40
same,"Plant response rating, Oat, Wild",wild oat (Avena fatua); [24],40
same,"Plant response rating, Bromegrass, Downy",[1]; [17],0
same,"Plant response rating, Bromegrass, Downy",[1]; [18],0
same,"Plant response rating, Bromegrass, Downy",[1]; [19],0
same,"Plant response rating, Bromegrass, Downy",[1]; [20],20
same,"Plant response rating, Bromegrass, Downy",[1]; [21],20
same,"Plant response rating, Bromegrass, Downy",[1]; [22],20
same,"Plant response rating, Bromegrass, Downy",[1]; [23],20
same,"Plant response rating, Bromegrass, Downy",[1]; [24],35
same,"Plant response rating, Pigweed",[2]; [17],0
same,"Plant response rating, Pigweed",[2]; [18],0
same,"Plant response rating, Pigweed",[2]; [19],0
same,"Plant response rating, Pigweed",[2]; [20],20
same,"Plant response rating, Pigweed",[2]; [21],0
same,"Plant response rating, Pigweed",[2]; [22],0
same,"Plant response rating, Pigweed",[2]; [23],0
same,"Plant response rating, Pigweed",[2]; [24],0
same,"Plant response rating, Foxtail, Green",[3]; [17],70
same,"Plant response rating, Foxtail, Green",[3]; [18],80
same,"Plant response rating, Foxtail, Green",[3]; [19],95
same,"Plant response rating, Foxtail, Green",[3]; [20],98
same,"Plant response rating, Foxtail, Green",[3]; [21],15
same,"Plant response rating, Foxtail, Green",[3]; [22],25
same,"Plant response rating, Foxtail, Green",[3]; [23],100
same,"Plant response rating, Foxtail, Green",[3]; [24],100
same,"Plant response rating, Wheat, Winter",[4]; [17],0
same,"Plant response rating, Wheat, Winter",[4]; [18],0
same,"Plant response rating, Wheat, Winter",[4]; [19],0
same,"Plant response rating, Wheat, Winter",[4]; [21],0
same,"Plant response rating, Wheat, Winter",[4]; [22],0
same,"Plant response rating, Wheat, Winter",[4]; [23],0
same,"Plant response rating, Wheat, Winter",[4]; [24],0
same,"Plant response rating, Blackgrass",[5]; [17],5
same,"Plant response rating, Blackgrass",[5]; [18],35
same,"Plant response rating, Blackgrass",[5]; [19],90
same,"Plant response rating, Blackgrass",[5]; [20],98
same,"Plant response rating, Blackgrass",[5]; [21],0
same,"Plant response rating, Blackgrass",[5]; [22],50
same,"Plant response rating, Blackgrass",[5]; [23],75
same,"Plant response rating, Blackgrass",[5]; [24],75
same,"Plant response rating, Ryegrass, Italian",[6]; [17],0
same,"Plant response rating, Ryegrass, Italian",[6]; [18],60
same,"Plant response rating, Ryegrass, Italian",[6]; [19],80
same,"Plant response rating, Ryegrass, Italian",[6]; [20],95
same,"Plant response rating, Ryegrass, Italian",[6]; [21],25
same,"Plant response rating, Ryegrass, Italian",[6]; [22],30
same,"Plant response rating, Ryegrass, Italian",[6]; [23],60
same,"Plant response rating, Ryegrass, Italian",[6]; [24],75
same,"Plant response rating, Wheat, Spring",[7]; [17],0
same,"Plant response rating, Wheat, Spring",[7]; [18],0
same,"Plant response rating, Wheat, Spring",[7]; [19],0
same,"Plant response rating, Wheat, Spring",[7]; [21],0
same,"Plant response rating, Wheat, Spring",[7]; [22],0
same,"Plant response rating, Wheat, Spring",[7]; [23],0
same,"Plant response rating, Wheat, Spring",[7]; [24],0
same,"Plant response rating, Mustard, Wild",[8]; [17],0
same,"Plant response rating, Mustard, Wild",[8]; [18],0
same,"Plant response rating, Mustard, Wild",[8]; [19],0
same,"Plant response rating, Mustard, Wild",[8]; [20],0
same,"Plant response rating, Mustard, Wild",[8]; [21],0
same,"Plant response rating, Mustard, Wild",[8]; [22],0
same,"Plant response rating, Mustard, Wild",[8]; [23],0
same,"Plant response rating, Canarygrass",[9]; [17],0
same,"Plant response rating, Canarygrass",[9]; [18],0
same,"Plant response rating, Canarygrass",[9]; [19],0
same,"Plant response rating, Canarygrass",[9]; [20],40
same,"Plant response rating, Canarygrass",[9]; [21],0
same,"Plant response rating, Canarygrass",[9]; [22],0
same,"Plant response rating, Canarygrass",[9]; [23],10
same,"Plant response rating, Canarygrass",[9]; [24],35
same,"Plant response rating, Barley, Winter",[10]; [17],0
same,"Plant response rating, Barley, Winter",[10]; [18],0
same,"Plant response rating, Barley, Winter",[10]; [19],0
same,"Plant response rating, Barley, Winter",[10]; [21],0
same,"Plant response rating, Barley, Winter",[10]; [22],0
same,"Plant response rating, Barley, Winter",[10]; [23],0
same,"Plant response rating, Barley, Winter",[10]; [24],0
same,"Plant response rating, Bluegrass",[11]; [17],0
same,"Plant response rating, Bluegrass",[11]; [18],0
same,"Plant response rating, Bluegrass",[11]; [19],15
same,"Plant response rating, Bluegrass",[11]; [20],15
same,"Plant response rating, Bluegrass",[11]; [21],0
same,"Plant response rating, Bluegrass",[11]; [22],35
same,"Plant response rating, Bluegrass",[11]; [23],40
same,"Plant response rating, Bluegrass",[11]; [24],40
same,"Plant response rating, Windgrass",[12]; [17],0
same,"Plant response rating, Windgrass",[12]; [18],0
same,"Plant response rating, Windgrass",[12]; [19],35
same,"Plant response rating, Windgrass",[12]; [20],60
same,"Plant response rating, Windgrass",[12]; [21],50
same,"Plant response rating, Windgrass",[12]; [22],75
same,Canarygrass plant response rating,[13]; [25],0
same,"Plant response rating, Canarygrass","[13]; 16 g ai/ha, scale 0 to 100",0
same,"Plant response rating, Canarygrass",[13]; [26],0
same,"Plant response rating, Canarygrass","[13]; 62 g ai/ha, scale 0 to 100",10
same,Barley plant response rating,[14]; [25],0
same,"Plant response rating, Barley","[14]; 16 g ai/ha, scale 0 to 100, 0 no effect, 100 complete control",0
same,"Plant response rating, Barley",[14]; [26],0
same,"Plant response rating, Barley","[14]; 62 g ai/ha, scale 0 to 100",0
same,Windgrass plant response rating,[15]; [25],40
same,"Plant response rating, Windgrass","[15]; 16 g ai/ha, scale 0 to 100",60
same,"Plant response rating, Windgrass",[15]; [26],60
same,"Plant response rating, Windgrass","[15]; 62 g ai/ha, scale 0 to 100",98
same,Chickweed plant response rating,[16]; [25],0
same,"Plant response rating, Chickweed","[16]; 16 g ai/ha, scale 0 to 100",0
same,"Plant response rating, Chickweed",[16]; [26],0
same,"Plant response rating, Chickweed","[16]; 62 g ai/ha, scale 0 to 100",0
